Experimental data: patent publication US10221177B2 (HYDRA BIOSCIENCES, INC., priority 2014, dated 2019)

Target: human TRPA1 (Homo sapiens (Human), UniProt O75762)
Experiment: In vitro inhibition of human TRPA1, whole cell patch configuration
Type: cell-based
Conditions: current activation 10 μM AITC, tested concentrations 320 pM to 3.2 μM, read-out: hTRPA1 IC50
Procedure, shortened: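 Whole-cell patch clamp, bath 150 mM NaCl, 10 mM HEPES, 1 mM EGTA, 3 mM MgCl2, pH 7.4 (sometimes 2 mM CaCl2, 1 mM MgCl2). Currents recorded continuously at −60 mV or by 400 ms ramps from −40 mV holding every 4 s; inward/outward currents taken at −80/80 mV, with controlled-temperature focal perfusion.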

Chain of human TRPA1 (O75762 whole entry): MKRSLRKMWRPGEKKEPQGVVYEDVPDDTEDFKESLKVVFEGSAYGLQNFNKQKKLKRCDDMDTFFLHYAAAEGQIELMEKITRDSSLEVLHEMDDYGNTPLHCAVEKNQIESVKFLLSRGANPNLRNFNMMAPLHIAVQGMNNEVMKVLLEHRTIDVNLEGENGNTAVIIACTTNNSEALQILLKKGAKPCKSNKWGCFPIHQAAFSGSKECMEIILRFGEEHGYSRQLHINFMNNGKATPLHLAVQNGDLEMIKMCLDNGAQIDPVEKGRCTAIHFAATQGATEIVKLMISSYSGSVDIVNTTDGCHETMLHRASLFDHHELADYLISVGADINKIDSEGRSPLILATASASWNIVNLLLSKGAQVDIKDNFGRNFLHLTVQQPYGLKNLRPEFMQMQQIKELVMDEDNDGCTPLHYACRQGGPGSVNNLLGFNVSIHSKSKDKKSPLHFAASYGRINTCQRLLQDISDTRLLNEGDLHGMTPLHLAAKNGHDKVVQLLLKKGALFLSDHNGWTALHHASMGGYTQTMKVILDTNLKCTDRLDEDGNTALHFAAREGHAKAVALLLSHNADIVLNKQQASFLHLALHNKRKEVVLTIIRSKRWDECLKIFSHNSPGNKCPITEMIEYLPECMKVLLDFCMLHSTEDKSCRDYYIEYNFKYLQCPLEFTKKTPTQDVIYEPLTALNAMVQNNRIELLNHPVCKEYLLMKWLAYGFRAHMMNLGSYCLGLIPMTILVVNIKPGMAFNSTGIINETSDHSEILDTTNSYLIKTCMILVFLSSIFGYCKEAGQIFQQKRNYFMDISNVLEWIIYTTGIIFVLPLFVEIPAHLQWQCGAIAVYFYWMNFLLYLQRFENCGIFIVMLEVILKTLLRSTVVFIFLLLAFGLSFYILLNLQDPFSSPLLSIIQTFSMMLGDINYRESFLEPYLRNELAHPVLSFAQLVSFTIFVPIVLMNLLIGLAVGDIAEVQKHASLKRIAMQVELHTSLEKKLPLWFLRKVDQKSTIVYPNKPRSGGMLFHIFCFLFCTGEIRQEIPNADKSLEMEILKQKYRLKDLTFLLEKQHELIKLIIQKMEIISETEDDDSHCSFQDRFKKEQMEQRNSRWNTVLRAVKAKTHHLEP

Work on CC(=O)Cn1c(=O)c2c(ncn2[C@@H](C)C(=O)Nc2cncc(-c3cnc(C(F)(F)F)nc3)n2)n(C)c1=O [Compound 6, (S)-2-(3-methyl-2,6-dioxo-1-(2-oxopropyl)-2,3-dihydro-1H-purin-7(6H)-yl)-N-(6-(2-(trifluoromethyl)pyrimidin-5-yl)pyrazin-2-yl)propanamide] yielded an IC50 of 39 nM.

CC(=O)Cn1c(=O)c2c(ncn2[C@@H](C)C(=O)Nc2csc(-c3cnc(N4CC5C(C4)C5(F)F)nc3)n2)n(C)c1=O (stereo partly drawn) [Compound 56, (2S)—N-(2-(2-(6,6-difluoro-3-azabicyclo[3.1.0]hexan-3-yl)pyrimidin-5-yl)thiazol-4-yl)-2-(3-methyl-2,6-dioxo-1-(2-oxopropyl)-2,3-dihydro-1H-purin-7(6H)-yl)propanamide] was tested, and the IC50 was 3 nM.

CCC(=O)Cn1c(=O)c2c(ncn2[C@@H](C)C(=O)Nc2cccc(-c3cnc(N4CC5C(C4)C5(F)F)nc3)n2)n(C)c1=O (stereo partly drawn) [Compound 26, (2S)—N-(6-(2-(6,6-difluoro-3-azabicyclo[3.1.0]hexan-3-yl)pyrimidin-5-yl)pyridin-2-yl)-2-(3-methyl-2,6-dioxo-1-(2-oxobutyl)-2,3-dihydro-1H-purin-7(6H)-yl)propanamide] showed an IC50 of 1 nM.

Compound C[C@@H](C(=O)Nc1cccc(-c2ccc(N3CC4CC4C3)nc2)n1)n1cnc2c1c(=O)n(CC#N)c(=O)n2C (stereo partly drawn) [Compound 35, (2S)—N-(6′-(3-azabicyclo[3.1.0]hexan-3-yl)-2,3′-bipyridin-6-yl)-2-(1-(cyanomethyl)-3-methyl-2,6-dioxo-2,3-dihydro-1H-purin-7(6H)-yl)] has an IC50 of 6 nM.

Compound C[C@@H](C(=O)Nc1ccnc(-c2ccc(N3CC4CC4C3)nc2)n1)n1cnc2c1c(=O)n(CC#N)c(=O)n2C (stereo partly drawn) [Compound 53, (2S)—N-(2-(6-(3-azabicyclo[3.1.0]hexan-3-yl)pyridin-3-yl)pyrimidin-4-yl)-2-(1-(cyanomethyl)-3-methyl-2,6-dioxo-2,3-dihydro-1H-purin-7(6H)-yl)propanamide] has an IC50 of 14 nM.

Compound C[C@@H](C(=O)Nc1cncc(-c2cnc(C(F)(F)F)nc2)n1)n1cnc2c1c(=O)n(Cc1ccccn1)c(=O)n2C [Compound 8, (S)-2-(3-methyl-2,6-dioxo-1-(pyridin-2-ylmethyl)-2,3-dihydro-1H-purin-7(6H)-yl)-N-(6-(2-(trifluoromethyl)pyrimidin-5-yl)pyrazin-2-yl)propanamide] has an IC50 of 44 nM.

CC(C(=O)Nc1cccc(-c2cnc(C(F)(F)F)nc2)n1)n1cnc2c1c(=O)n(CC#N)c(=O)n2C (stereo not shown) [Compound 10, 2-(1-(cyanomethyl)-3-methyl-2,6-dioxo-2,3-dihydro-1H-purin-7(6H)-yl)-N-(6-(2-(trifluoromethyl)pyrimidin-5-yl)pyridin-2-yl)propanamide] was tested, and the IC50 was 24 nM.

COCC(=O)Cn1c(=O)c2c(ncn2CC(=O)Nc2csc(-c3cnc(C)c(C(F)(F)F)c3)n2)n(C)c1=O [Compound 254, 2-(1-(3-methoxy-2-oxopropyl)-3-methyl-2,6-dioxo-2,3-dihydro-1H-purin-7(6H)-yl)-N-(2-(6-methyl-5-(trifluoromethyl)pyridin-3-yl)thiazol-4-yl)acetamide] gave an IC50 of 14 nM.

Work on COCC(=O)Cn1c(=O)c2c(ncn2CC(=O)Nc2csc(-c3cnc(C(F)(F)F)c(C)c3)n2)n(C)c1=O [Compound 255, 2-(1-(3-methoxy-2-oxopropyl)-3-methyl-2,6-dioxo-2,3-dihydro-1H-purin-7(6H)-yl)-N-(2-(5-methyl-6-(trifluoromethyl)pyridin-3-yl)thiazol-4-yl)acetamide] yielded an IC50 of 13 nM.

Cc1nc(Cn2c(=O)c3c(ncn3[C@@H](C)C(=O)Nc3cccc(-c4cnc(C)c(C(F)(F)F)c4)n3)n(C)c2=O)no1 [Compound 151, (S)-2-(3-methyl-1-((5-methyl-1,2,4-oxadiazol-3-yl)methyl)-2,6-dioxo-2,3-dihydro-1H-purin-7(6H)-yl)-N-(6′-methyl-5′-(trifluoromethyl)-2,3′-bipyridin-6-yl)propanamide] gave an IC50 of 16 nM.

Work on CC(=O)Cn1c(=O)c2c(nc(C)n2CC(=O)Nc2cccc(-c3ccc(F)c(F)c3)n2)n(C)c1=O [Compound 193, N-(6-(3,4-difluorophenyl)pyridin-2-yl)-2-(3,8-dimethyl-2,6-dioxo-1-(2-oxopropyl)-1,2,3,6-tetrahydropurin-7-yl)acetamide] yielded an IC50 of 45 nM.

Work on Cc1cc(Cn2c(=O)c3c(ncn3[C@@H](C)C(=O)Nc3cncc(-c4cnc(N5CCC[C@H]5C(F)(F)F)nc4)n3)n(C)c2=O)no1 [Compound 96, (S)-2-(3-methyl-1-((5-methylisoxazol-3-yl)methyl)-2,6-dioxo-2,3-dihydro-1H-purin-7(6H)-yl)-N-(6-(2-((S)-2-(trifluoromethyl)pyrrolidin-1-yl)pyrimidin-5-yl)pyrazin-2-yl)propanamide] yielded an IC50 of 2 nM.

For CC(=O)Cn1c(=O)c2c(ncn2[C@@H](C)C(=O)Nc2cncc(-c3cnc(N4CC5CC5C4)nc3)n2)n(C)c1=O (stereo partly drawn) [Compound 152, (2S)—N-(6-(2-(3-azabicyclo[3.1.0]hexan-3-yl)pyrimidin-5-yl)pyrazin-2-yl)-2-(3-methyl-2,6-dioxo-1-(2-oxopropyl)-2,3-dihydro-1H-purin-7(6H)-yl)propanamide], the IC50 was 7 nM.

Cc1cc(Cn2c(=O)c3c(ncn3[C@@H](C)C(=O)Nc3cncc(-c4ccc(C(F)(F)F)nc4)n3)n(C)c2=O)no1 [Compound 118, (S)-2-(3-methyl-1-((5-methylisoxazol-3-yl)methyl)-2,6-dioxo-2,3-dihydro-1H-purin-7(6H)-yl)-N-(6-(6-(trifluoromethyl)pyridin-3-yl)pyrazin-2-yl)propanamide] gave an IC50 of 17 nM.

With CCC(=O)Cn1c(=O)c2c(ncn2CC(=O)Nc2cccc(-c3cnc(C(F)(F)F)c(C)c3)n2)n(C)c1=O [Compound 226, 2-(3-methyl-2,6-dioxo-1-(2-oxobutyl)-2,3-dihydro-1H-purin-7(6H)-yl)-N-(5′-methyl-6′-(trifluoromethyl)-[2,3′-bipyridin]-6-yl)acetamide] the IC50 was 8 nM.

With Cc1cc(Cn2c(=O)c3c(ncn3CC(=O)Nc3cncc(-c4cnc(C(F)(F)F)c(C)c4)n3)n(C)c2=O)no1 [Compound 229, 2-(3-methyl-1-((5-methylisoxazol-3-yl)methyl)-2,6-dioxo-2,3-dihydro-1H-purin-7(6H)-yl)-N-(6-(5-methyl-6-(trifluoromethyl)pyridin-3-yl)pyrazin-2-yl)acetamide] the IC50 was 9 nM.

Work on C[C@@H](C(=O)Nc1cncc(-c2cnc(N3CC4CC4C3)nc2)n1)n1cnc2c1c(=O)n(CC#N)c(=O)n2C (stereo partly shown) [Compound 12] yielded an IC50 of 7 nM.

In the case of Cc1cc(Cn2c(=O)c3c(ncn3CC(=O)Nc3cccc(-c4cnc(C)c(F)c4)n3)n(C)c2=O)no1 [Compound 228, N-(5′-fluoro-6′-methyl-[2,3′-bipyridin]-6-yl)-2-(3-methyl-1-((5-methylisoxazol-3-yl)methyl)-2,6-dioxo-2,3-dihydro-1H-purin-7(6H)-yl)acetamide], the IC50 is reported as 17 nM.

For Cc1noc(Cn2c(=O)c3c(ncn3[C@@H](C)C(=O)Nc3csc(-c4cnc(N5CC6CC6C5)nc4)n3)n(C)c2=O)n1 (stereo partly drawn) [Compound 166, (2S)—N-(2-(2-(3-azabicyclo[3.1.0]hexan-3-yl)pyrimidin-5-yl)thiazol-4-yl)-2-(3-methyl-1-((3-methyl-1,2,4-oxadiazol-5-yl)methyl)-2,6-dioxo-2,3-dihydro-1H-purin-7(6H)-yl)propanamide], the IC50 was 6 nM.
